The conditions of this data set: 101 kPa, Liquid; for viscosity: Capillary tube (Ostwald / Ubbelohde) method; for mass density: Vibrating tube method.

SMILES strings stand for the structures. Several values for one entry are separate records, joined by “and”; a condition that tells them apart may be missing. Equal values may be shown once. Numbers after ± are expanded uncertainties.

A word on the viscosity: it is the resistance of a fluid to flow. The mass density is mass per unit of volume. Regarding `Cc1cccc(C)c1` [1,3-dimethylbenzene], the viscosity is, setting by setting: (298.15 K) 0.587 ± 0.007 mPa·s; (308.15 K) 0.524 ± 0.007 mPa·s; (318.15 K) 0.471 ± 0.007 mPa·s. The mass density by setting is: (298.15 K) 859.83 ± 0.18 kg/m3; (308.15 K) 851.19 ± 0.18 kg/m3; (318.15 K) 842.49 ± 0.18 kg/m3.
Consider `Cc1ccc(C)cc1` [1,4-dimethylbenzene], for which the viscosity amounted to 0.609 ± 0.007 mPa·s (298.15 K), 0.541 ± 0.007 mPa·s (308.15 K) and 0.484 ± 0.007 mPa·s (318.15 K). For the same compound, the mass density reads like this: (298.15 K) 856.68 ± 0.14 kg/m3; (308.15 K) 847.96 ± 0.14 kg/m3; (318.15 K) 839.2 ± 0.15 kg/m3.
On to `c1ccccc1` [benzene], for which the viscosity runs as follows: (298.15 K) 0.603 ± 0.007 mPa·s; (308.15 K) 0.533 ± 0.007 mPa·s; (318.15 K) 0.466 ± 0.007 mPa·s. The mass density reads like this: (298.15 K) 873.61 ± 0.15 kg/m3; (308.15 K) 862.28 ± 0.15 kg/m3; (318.15 K) 852.08 ± 0.15 kg/m3.
With `COC(=O)CCCCl` [methyl 4-chlorobutanoate], the viscosity turned out to be 1.519 ± 0.01 mPa·s (298.15 K), 1.279 ± 0.009 mPa·s (308.15 K) and 1.089 ± 0.009 mPa·s (318.15 K). Further, the mass density is 1116.24 ± 0.13 kg/m3 (298.15 K); 1105.22 ± 0.13 kg/m3 and 1105.23 ± 0.13 kg/m3 (308.15 K); 1094.13 ± 0.12 kg/m3 (318.15 K).
`Cc1ccccc1` [toluene]: the mass density reads like this: (298.15 K) 862.18 ± 0.19 kg/m3; (308.15 K) 852.81 ± 0.19 kg/m3; (318.15 K) 843.4 ± 0.19 kg/m3. In addition, the viscosity (308.15 K) came out at 0.499 ± 0.007 mPa·s and the viscosity (318.15 K) is recorded as 0.446 ± 0.007 mPa·s.

For the origin of these results see the NIST ThermoML archive (doi:10.1021/je900194v).
